From patent EP0400319A1, “4-(4'-Halophenyl)-2-methyl-1,2,3,4-tetrahydroisoquinolines and process for their preparation” (N I S PRI VCHTI, priority 1989, dated 1990)
Values joined by “and” are separate entries in the source; they are usually repeats but may differ in a detail not shown here. Equal entries are not always repeated. Structures can show the parent of a compound that is named as a salt.

System: durch Wasser-Immersionsstreß verursachte Magengeschwüre
Assay: Water-immersion stress induced gastric ulcers in rats
Format: in vivo, Ratten
Conditions: for Geschwürindex: 5 h water immersion; for Antiulkuswirkung im Vergleich zum Präparat Ranitidin: ratio of doses giving about 52% inhibition
Excerpt: Untersucht wurde auch die Antiulkusaktivität der razemischen 1a- und 1b-Verbindungen auf ein experimentelles Modell von Wasser-Immersionsstreß verursachten Magengeschwüren bei Ratten (Tabelle 2). Das Vergleichspräparat war der H₂-Antagonist Ranitidin.
Bestimmung der inhibierenden Wirkung von 1a und 1b auf durch Wasser-Immersionsstreß verursachte Magengeschwüre bei Ratten
Die Versuche wurden mit 280 weißen männlichen Ratten der Rasse Wistar mit einem Gewicht von 150 bis 200 g nach der in K. Takadi, Y. Ischii, Arzneim. Forsch. Drug Res., 1967, 17, 1544, beschriebenen Methode durchgeführt. 18 h vor dem Versuch hungern die Tiere unter freiem Wasserzutritt. Die Versuchsverbindung wird oral verabreicht, worauf die Tiere unbeweglich und voneinander isoliert auf dem Rücken auf eine Unterlage gebunden werden. Man legt die Tiere bei 17-18°C ins Wasser und tötet sie nach 5 h. Die Mägen werden entnommen und die destruktiven Veränderungen makroskopisch bestimmt.

SMILES | Unterdrückung des Geschwürindex (oral, 10 mg/kg) | Geschwürindex (oral, 10 mg/kg) | Unterdrückung des Geschwürindex (oral, 30 mg/kg) | Geschwürindex (oral, 30 mg/kg) | Unterdrückung des Geschwürindex (oral, 0,500 mg/kg) | Geschwürindex (oral, 0,500 mg/kg) | Unterdrückung des Geschwürindex (oral, 1,000 mg/kg) | Geschwürindex (oral, 1,000 mg/kg) | Unterdrückung des Geschwürindex (oral, 3,000 mg/kg) | Geschwürindex (oral, 3,000 mg/kg) | ED50 (Rattus norvegicus, 5 h, oral, Inhibierungsgrad 52% at this dose, read-out: durchschnittliche effektive Dosis) | Dosis, bei der der Inhibierungsgrad ein Maximum erreicht (oral) | Unterdrückung des Geschwürindex (oral, 0,050 mg/kg) | Geschwürindex (oral, 0,050 mg/kg) | Unterdrückung des Geschwürindex (oral, 0,100 mg/kg) | Geschwürindex (oral, 0,100 mg/kg) | Antiulkuswirkung im Vergleich zum Präparat Ranitidin (oral)
CNC(=C[N+](=O)[O-])NCCSCc1ccc(CN(C)C)o1 [Ranitidin, reference compound] | 46,98% | 22,8 | 61,62% | 17,0 | 27% | 32,3 | 39,27% | 26,9 | 35,89% | 28,4 | – | – | – | – | – | – | –
CN1Cc2ccccc2C(c2ccc(Br)cc2)C1 (racemic) [1a, 4-(4′-Bromphenyl)-2-methyl-1,2,3,4-tetrahydroisochinolin Hydrochlorid] | – | – | – | – | 52,1% | 30,8 ±17,7 | 58,9% | 35,7 ±14,2 | 70,3% | 19,5 ±12,3 | 0.5 mg/kg | 3 mg/kg | 20,6% | 69 ±18,2 | 48,9% and 48,3% | 44,4 ± 9,66 | 20 Mal
CN1Cc2ccccc2C(c2ccc(F)cc2)C1 (racemic) [1b, 4-(4′-fluorphenyl)-2-methyl-1,2,3,4-tetrahydroisochinolin Hydrochlorid] | – | – | – | – | – | – | 41,53% | 38,5 ± 7,75 | 57,98% | 27,66±12,73 | – | – | – | – | – | – | Ähnliche Ergebnisse
